Experiment [1] addresses Protein kinase C gamma type (Homo sapiens, UniProt P05129). As to the kind of experiment: Inhibitory concentration against recombinant human Protein kinase C gamma isozyme.
Experiment [2] has as its target T1, Protein kinase C beta type (Homo sapiens, UniProt P05771). As to the kind of experiment: Inhibitory concentration against recombinant human Protein kinase C beta 1 isozyme.
Experiment [3] deals with Protein kinase C eta type (Homo sapiens, UniProt P24723). As to the kind of experiment: Inhibitory concentration against recombinant human Protein kinase C eta isozyme.
Experiment [4] deals with T2, Protein kinase C epsilon type (Homo sapiens, UniProt Q02156).
T2 sequence (Q02156 whole entry): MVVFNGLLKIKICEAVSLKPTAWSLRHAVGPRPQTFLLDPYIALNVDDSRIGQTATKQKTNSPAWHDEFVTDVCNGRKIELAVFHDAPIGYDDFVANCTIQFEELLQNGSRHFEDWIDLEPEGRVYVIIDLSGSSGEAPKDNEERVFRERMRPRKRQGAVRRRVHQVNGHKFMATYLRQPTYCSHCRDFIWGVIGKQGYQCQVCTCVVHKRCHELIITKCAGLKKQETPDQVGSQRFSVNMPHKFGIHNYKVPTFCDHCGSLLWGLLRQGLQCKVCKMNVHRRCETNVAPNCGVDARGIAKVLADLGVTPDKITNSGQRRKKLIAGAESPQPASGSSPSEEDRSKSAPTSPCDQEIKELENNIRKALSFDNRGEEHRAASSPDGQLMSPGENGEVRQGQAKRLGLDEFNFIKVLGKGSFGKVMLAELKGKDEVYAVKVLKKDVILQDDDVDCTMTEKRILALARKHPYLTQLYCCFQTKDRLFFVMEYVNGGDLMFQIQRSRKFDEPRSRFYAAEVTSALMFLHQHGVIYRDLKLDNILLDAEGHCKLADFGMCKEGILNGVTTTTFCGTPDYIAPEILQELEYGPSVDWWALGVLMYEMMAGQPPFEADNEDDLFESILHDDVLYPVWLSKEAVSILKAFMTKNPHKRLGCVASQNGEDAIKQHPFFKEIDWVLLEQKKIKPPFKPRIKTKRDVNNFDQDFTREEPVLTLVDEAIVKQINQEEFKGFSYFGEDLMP
As to the kind of experiment: Inhibitory concentration against recombinant human Protein kinase C epsilon isozyme.

Experiment [5] deals with Protein kinase C alpha type (Homo sapiens, UniProt P17252). As to the kind of experiment: Inhibitory concentration against recombinant human Protein kinase C alpha isozyme.
Experiment [6] concerns the target Protein kinase C delta type (Homo sapiens, UniProt Q05655). As to the kind of experiment: Inhibitory concentration against recombinant human Protein kinase C delta isozyme.
In experiment [7] the target is T1, Protein kinase C beta type. As to the kind of experiment: Inhibitory concentration against recombinant human Protein kinase C beta 2 isozyme.
The target in experiment [8] is cAMP-dependent protein kinase catalytic subunit alpha (Homo sapiens, UniProt P17612). As to the kind of experiment: Inhibitory concentration against recombinant human cAMP-dependent Protein kinase A.
In experiment [9] the target is T3, Protein kinase C zeta type (Homo sapiens, UniProt Q05513).
T3 sequence (Q05513 whole entry): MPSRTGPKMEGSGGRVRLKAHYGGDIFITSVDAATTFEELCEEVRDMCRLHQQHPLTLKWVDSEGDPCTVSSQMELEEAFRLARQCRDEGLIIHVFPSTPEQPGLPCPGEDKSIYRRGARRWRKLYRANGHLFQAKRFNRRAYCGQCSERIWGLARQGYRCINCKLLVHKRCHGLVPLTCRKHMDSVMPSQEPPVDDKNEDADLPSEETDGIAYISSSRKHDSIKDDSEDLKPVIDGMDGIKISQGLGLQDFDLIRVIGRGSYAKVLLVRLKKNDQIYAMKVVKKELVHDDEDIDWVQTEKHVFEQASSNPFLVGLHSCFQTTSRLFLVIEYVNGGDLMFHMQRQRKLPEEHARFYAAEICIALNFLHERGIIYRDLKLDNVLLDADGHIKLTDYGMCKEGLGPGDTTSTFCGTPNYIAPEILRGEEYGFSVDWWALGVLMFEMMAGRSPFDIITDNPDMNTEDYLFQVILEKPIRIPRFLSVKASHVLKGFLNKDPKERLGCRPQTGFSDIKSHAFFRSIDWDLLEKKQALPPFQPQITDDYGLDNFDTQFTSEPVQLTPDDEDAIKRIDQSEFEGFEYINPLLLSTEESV
As to the kind of experiment: Inhibitory concentration against recombinant human Protein kinase C zeta isozyme.

Chain of Protein kinase C delta type (Q05655 whole entry): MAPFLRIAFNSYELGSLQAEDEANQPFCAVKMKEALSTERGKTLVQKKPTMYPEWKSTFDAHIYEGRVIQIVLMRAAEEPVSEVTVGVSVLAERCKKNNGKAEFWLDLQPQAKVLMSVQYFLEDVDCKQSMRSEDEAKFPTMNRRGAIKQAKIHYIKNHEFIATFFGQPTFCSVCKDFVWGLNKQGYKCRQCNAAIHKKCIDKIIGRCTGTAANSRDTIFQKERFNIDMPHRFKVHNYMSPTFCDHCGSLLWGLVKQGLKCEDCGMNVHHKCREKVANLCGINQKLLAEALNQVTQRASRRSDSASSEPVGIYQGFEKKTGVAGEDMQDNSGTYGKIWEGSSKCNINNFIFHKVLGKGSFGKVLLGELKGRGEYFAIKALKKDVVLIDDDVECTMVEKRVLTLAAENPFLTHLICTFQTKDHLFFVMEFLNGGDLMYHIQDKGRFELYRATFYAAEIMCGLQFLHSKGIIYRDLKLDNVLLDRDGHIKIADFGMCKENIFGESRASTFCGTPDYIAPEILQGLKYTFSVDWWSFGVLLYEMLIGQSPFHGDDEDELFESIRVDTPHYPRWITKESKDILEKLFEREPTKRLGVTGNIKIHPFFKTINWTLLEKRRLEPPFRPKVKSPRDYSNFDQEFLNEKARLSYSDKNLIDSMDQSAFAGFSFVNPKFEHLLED
Chain of Protein kinase C eta type (P24723 whole entry): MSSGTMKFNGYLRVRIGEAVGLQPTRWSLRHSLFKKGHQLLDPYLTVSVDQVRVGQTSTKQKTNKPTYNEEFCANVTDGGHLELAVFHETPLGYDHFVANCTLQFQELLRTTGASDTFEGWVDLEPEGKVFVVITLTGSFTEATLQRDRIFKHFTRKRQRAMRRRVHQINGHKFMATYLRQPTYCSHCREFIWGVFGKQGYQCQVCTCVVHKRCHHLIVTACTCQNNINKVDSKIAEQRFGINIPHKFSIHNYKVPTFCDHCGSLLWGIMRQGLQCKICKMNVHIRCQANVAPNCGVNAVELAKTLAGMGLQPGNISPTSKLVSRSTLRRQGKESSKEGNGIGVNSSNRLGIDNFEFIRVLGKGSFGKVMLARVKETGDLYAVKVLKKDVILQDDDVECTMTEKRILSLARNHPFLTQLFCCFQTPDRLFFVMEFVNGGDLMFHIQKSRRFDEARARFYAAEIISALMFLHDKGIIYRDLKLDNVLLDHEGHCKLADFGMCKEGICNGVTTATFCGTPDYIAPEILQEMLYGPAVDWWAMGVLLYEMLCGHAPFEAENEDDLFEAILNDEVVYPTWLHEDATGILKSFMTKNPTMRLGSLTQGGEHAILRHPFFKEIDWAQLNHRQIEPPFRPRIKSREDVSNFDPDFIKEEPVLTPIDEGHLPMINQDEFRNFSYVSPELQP
T1 sequence (P05771 whole entry): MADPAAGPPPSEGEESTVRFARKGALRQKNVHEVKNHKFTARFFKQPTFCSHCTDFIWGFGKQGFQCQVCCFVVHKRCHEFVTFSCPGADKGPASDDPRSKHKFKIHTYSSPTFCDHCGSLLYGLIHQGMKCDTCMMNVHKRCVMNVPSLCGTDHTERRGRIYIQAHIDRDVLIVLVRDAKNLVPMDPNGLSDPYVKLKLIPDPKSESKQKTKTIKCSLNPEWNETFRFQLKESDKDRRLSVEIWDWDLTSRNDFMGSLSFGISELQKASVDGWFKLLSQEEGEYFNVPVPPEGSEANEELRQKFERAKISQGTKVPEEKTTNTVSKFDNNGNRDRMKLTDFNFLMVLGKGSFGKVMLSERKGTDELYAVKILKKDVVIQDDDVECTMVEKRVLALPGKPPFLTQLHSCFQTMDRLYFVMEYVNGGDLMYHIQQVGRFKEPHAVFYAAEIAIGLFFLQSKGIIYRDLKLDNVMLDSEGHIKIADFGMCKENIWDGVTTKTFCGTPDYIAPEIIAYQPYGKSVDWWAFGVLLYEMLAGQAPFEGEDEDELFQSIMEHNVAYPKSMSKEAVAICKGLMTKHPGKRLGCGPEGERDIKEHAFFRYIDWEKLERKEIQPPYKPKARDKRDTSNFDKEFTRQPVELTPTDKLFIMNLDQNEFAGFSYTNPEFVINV

By IC50 is commonly meant the concentration needed to halve the response being measured. For the compound `O=C(N[C@@H]1CS(=O)(=O)CCC[C@H]1OC(=O)c1cc(O)c(C(=O)c2c(O)cccc2C(=O)O)c(O)c1)c1ccc(O)cc1`, the IC50 stood at 4300 nM in experiment [1]; 5200 nM in [2]; 800 nM in [3]; 45 µM in experiment [4]; 9600 nM in [5]; 4000 nM in experiment [6]. Moreover, the values for the IC50 in experiment [7], in experiment [8] and in experiment [9] were 3600 nM, 38 µM and more than 150 µM, respectively.
`CS(=O)(=O)N1C[C@@H](NC(=O)c2ccc(O)cc2)[C@H](OC(=O)c2cc(O)c(C(=O)c3c(O)cccc3C(=O)O)c(O)c2)C1`: the IC50 was 400 nM in experiment [1]; 330 nM in experiment [2]; 62 nM in [3]; 1.3 µM in [4]; 910 nM in [5]; 35 nM in experiment [6]. In addition, the IC50 in experiment [7] was 350 nM; in [8] it was 4.5 µM; in experiment [9], more than 150 µM.
For the compound `NC[C@@H]1C[C@@H](NC(=O)c2ccc(O)cc2)[C@H](OC(=O)c2cc(O)c(C(=O)c3c(O)cccc3C(=O)O)c(O)c2)C1`, the half-maximal inhibitory concentration (IC50) in experiment [1] was found to be 10 nM; in experiment [2] it was 5 nM; in experiment [3], 3 nM; in experiment [4], 0.03 µM; in experiment [5], 20 nM; in [6], 20 nM. In addition, the IC50 in [7] is 5 nM; in experiment [8] it was 0.09 µM; in experiment [9] it was 3.1 µM.
As to `CNC(=O)N1C[C@@H](NC(=O)c2ccc(O)cc2)[C@H](OC(=O)c2cc(O)c(C(=O)c3c(O)cccc3C(=O)O)c(O)c2)C1`, the IC50 in [1] worked out at 410 nM; in [2] it was 680 nM; in experiment [3], 130 nM; in [4] it was 3.6 µM; in experiment [5], 2200 nM; in experiment [6] it was 40 nM. The IC50 is 1800 nM in experiment [7], 3 µM in experiment [8] and more than 50 µM in experiment [9].
Regarding `COC(=O)N1C[C@@H](NC(=O)c2ccc(O)cc2)[C@H](OC(=O)c2cc(O)c(C(=O)c3c(O)cccc3C(=O)O)c(O)c2)C1`, the IC50 was 540 nM in experiment [1]; 810 nM in experiment [2]; 90 nM in experiment [3]; 4.8 µM in experiment [4]; 540 nM in [5]; 100 nM in [6]. In addition, the IC50 is 2700 nM in experiment [7], 13 µM in [8] and more than 150 µM in experiment [9].

These data come from ChEMBL document CHEMBL1130164 (J Med Chem, 1997).
